Measured values from US20230027066A1 (Urovant Sciences GmbH, priority 2019, published 2023).

Experiments:
Format in all cases: in vivo, human
[1] = thorough QT study, single doses of 200 and 400 mg, healthy volunteers; conditions: vibegron 400 mg single dose
[2] = ABPM study, adverse events; conditions: 75 mg, 28 days
Experimental: Safety was evaluated by assessment of clinical laboratory tests, physical examinations, and vital signs measurements from office visits at various time points during the study, and by the documentation of AEs.
Safety Set (SAF): All subjects who received at least one dose of double-blind study treatment were included in the SAF. Subjects were included in the treatment group corresponding to the Study Treatment that was actually received. This was the population used to summarize safety analyses collected during clinic visits and correspondence with site staff; summarization of baseline/demographic characteristics also presented for the SAF.

men and women with OAB = test: Phase 2b study of vibegron in OAB, Part 1, efficacy at Week 8 (voiding diary)
Source text: Part 2 was designed to continue to assess the safety and efficacy of concomitant dosing. […] Subjects in both Part 1 and Part 2 had the option of enrolling in a 1-year extension. Participants were required to keep a voiding diary, recording the occurrence of each strong urge, total incontinence, and urge incontinence episode. Efficacy data for Part 1 and Part 2 are summarized herein.
The total number of urgency incontinence episodes must have exceeded the total number of stress incontinence episodes for all subjects.

[3] = vibegron 3 mg, OAB Wet subjects
[4] = vibegron 15 mg, OAB Wet subjects
[5] = vibegron 50 mg, OAB Wet subjects
[6] = vibegron 100 mg, OAB Wet subjects

O=C(Nc1ccc(C[C@@H]2CC[C@H]([C@H](O)c3ccccc3)N2)cc1)[C@@H]1CCc2nccc(=O)n21 [Vibegron, (6S)-N-[4-[[(2S,5R)−5-[(R)-hydroxy(phenyl)methyl]pyrrolidin−2-yl]methyl]phenyl]−4-oxo−7,8-dihydro−6H-pyrrolo[1,2-a]pyrimidine−6-carboxamide]
Maximum mean placebo corrected change from baseline RR interval [1]: -162.45 ms
Maximum mean placebo corrected change from baseline diastolic BP [1]: 3.99 mmHg
Maximum mean placebo corrected change from baseline systolic BP [1]: 3.97 mmHg
Discontinued the study: Adverse Event, subjects n ([2]; Randomized N = 106): 2
AECIs ([2]; Safety N = 106): 8 (7.5) n (%)
AEs Leading to Treatment Discontinuation ([2]; Safety N = 106): 3 (2.8) n (%)
Adverse event: Blood pressure increased ([2]; Safety N = 106): 0 n (%)
Adverse event: Constipation ([2]; Safety N = 106): 2 (1.9) n (%)
Adverse event: Diarrhea ([2]; Safety N = 106): 3 (2.8) n (%)
Adverse event: Dry mouth ([2]; Safety N = 106): 3 (2.8) n (%)
Adverse event: Fatigue ([2]; Safety N = 106): 3 (2.8) n (%)
Adverse event: Haematuria ([2]; Safety N = 106): 3 (2.8) n (%)
Adverse event: Headache ([2]; Safety N = 106): 4 (3.8) n (%)
Adverse event: Hypertension ([2]; Safety N = 106): 5 (4.7) n (%)
Adverse event: Hypotension ([2]; Safety N = 106): 1 (0.9) n (%)
Adverse event: Increased residual urine ([2]; Safety N = 106): 0 n (%)
Adverse event: Nasopharyngitis ([2]; Safety N = 106): 3 (2.8) n (%)
Adverse event: Nausea ([2]; Safety N = 106): 3 (2.8) n (%)
Adverse event: Tachycardia ([2]; Safety N = 106): 0 n (%)
Adverse event: Upper respiratory tract infection ([2]; Safety N = 106): 5 (4.7) n (%)
Adverse event: Urinary retention ([2]; Safety N = 106): 1 (0.9) n (%)
Adverse event: Urinary tract infection ([2]; Safety N = 106): 3 (2.8) n (%)
Fatal adverse event ([2]; Safety N = 106): 0 n (%)
Serious adverse event (SAE) ([2]; Safety N = 106): 1 (0.9) n (%)
Treatment emergent Adverse event (AE) ([2]; Safety N = 106): 49 (46.2) n (%)
Treatment-related AECIs ([2]; Safety N = 106): 3 (2.8) n (%)
Treatment-related SAE by the investigator ([2]; Safety N = 106): 0 n (%)
Micturitions: adjusted difference from placebo at Week 8, difference in LS means (MMRM) (men and women with OAB; vibegron 3 mg): −0.5
Micturitions: difference from placebo at Week 8, difference in LS means (cLDA) (men and women with OAB; vibegron 3 mg): −0.46
Urgency episodes: adjusted difference from placebo at Week 8, difference in LS means (MMRM) (men and women with OAB; vibegron 3 mg): −0.2
Urgency episodes: difference from placebo at Week 8, difference in LS means (cLDA) (men and women with OAB; vibegron 3 mg): −0.18
Total incontinence episodes: adjusted difference from placebo at Week 8, difference in LS means (MMRM) (men and women with OAB; [3]): −0.1
Total incontinence episodes: difference from placebo at Week 8, difference in LS means (cLDA) (men and women with OAB; [3]): −0.18
Urgency incontinence episodes: adjusted difference from placebo at Week 8, difference in LS means (MMRM) (men and women with OAB; [3]): −0.2
Urgency incontinence episodes: difference from placebo at Week 8, difference in LS means (cLDA) (men and women with OAB; [3]): −0.28
Micturitions: adjusted difference from placebo at Week 8, difference in LS means (MMRM) (men and women with OAB; vibegron 15 mg): −0.5
Micturitions: difference from placebo at Week 8, difference in LS means (cLDA) (men and women with OAB; vibegron 15 mg): −0.45
Urgency episodes: adjusted difference from placebo at Week 8, difference in LS means (MMRM) (men and women with OAB; vibegron 15 mg): −0.7
Urgency episodes: difference from placebo at Week 8, difference in LS means (cLDA) (men and women with OAB; vibegron 15 mg): −0.67
Total incontinence episodes: adjusted difference from placebo at Week 8, difference in LS means (MMRM) (men and women with OAB; [4]): −0.4
Total incontinence episodes: difference from placebo at Week 8, difference in LS means (cLDA) (men and women with OAB; [4]): −0.48
Urgency incontinence episodes: adjusted difference from placebo at Week 8, difference in LS means (MMRM) (men and women with OAB; [4]): −0.6
Urgency incontinence episodes: difference from placebo at Week 8, difference in LS means (cLDA) (men and women with OAB; [4]): −0.57
Micturitions: adjusted difference from placebo at Week 8, difference in LS means (MMRM) (men and women with OAB; vibegron 50 mg): −0.7
Micturitions: difference from placebo at Week 8, difference in LS means (cLDA) (men and women with OAB; vibegron 50 mg): −0.64
Urgency episodes: adjusted difference from placebo at Week 8, difference in LS means (MMRM) (men and women with OAB; vibegron 50 mg): −0.8
Urgency episodes: difference from placebo at Week 8, difference in LS means (cLDA) (men and women with OAB; vibegron 50 mg): −0.76
Total incontinence episodes: adjusted difference from placebo at Week 8, difference in LS means (MMRM) (men and women with OAB; [5]): −0.5
Total incontinence episodes: difference from placebo at Week 8, difference in LS means (cLDA) (men and women with OAB; [5]): −0.60
Urgency incontinence episodes: adjusted difference from placebo at Week 8, difference in LS means (MMRM) (men and women with OAB; [5]): −0.7
Urgency incontinence episodes: change from baseline at Week 8, mean (men and women with OAB; [5]): −1.90
Urgency incontinence episodes: daily number of events, Week 8 mean (men and women with OAB; [5]): 0.86
Urgency incontinence episodes: difference from placebo at Week 8, difference in LS means (cLDA) (men and women with OAB; [5]): −0.72
Micturitions: adjusted difference from placebo at Week 8, difference in LS means (MMRM) (men and women with OAB; vibegron 100 mg): −0.9
Micturitions: difference from placebo at Week 8, difference in LS means (cLDA) (men and women with OAB; vibegron 100 mg): −0.91
Urgency episodes: adjusted difference from placebo at Week 8, difference in LS means (MMRM) (men and women with OAB; vibegron 100 mg): −1.3
Micturitions, change from baseline at week 8, difference in LS means 100 mg − 50 mg (men and women with OAB; vibegron 100 mg vs 50 mg): −0.27
Total incontinence episodes, change from baseline at week 8, difference in LS means 100 mg − 50 mg (men and women with OAB; vibegron 100 mg vs 50 mg): 0.02
Urgency episodes, change from baseline at week 8, difference in LS means 100 mg − 50 mg (men and women with OAB; vibegron 100 mg vs 50 mg): −0.48
Urgency incontinence episodes, change from baseline at week 8, difference in LS means 100 mg − 50 mg (men and women with OAB; vibegron 100 mg vs 50 mg): 0.01
Total incontinence episodes: adjusted difference from placebo at Week 8, difference in LS means (MMRM) (men and women with OAB; [6]): −0.6
Total incontinence episodes: difference from placebo at Week 8, difference in LS means (cLDA) (men and women with OAB; [6]): −0.58
Urgency incontinence episodes: adjusted difference from placebo at Week 8, difference in LS means (MMRM) (men and women with OAB; [6]): −0.7
Urgency incontinence episodes: daily number of events, Week 8 mean (men and women with OAB; [6]): 0.84
Urgency incontinence episodes: difference from placebo at Week 8, difference in LS means (cLDA) (men and women with OAB; [6]): −0.71
